{
  "source": "patent US9296687B2",
  "about": "“Modulators of HSP70/DnaK function and methods of use thereof” (The Trustees of the University of Pennsylvania, priority 2008, dated 2016)",
  "key": {"E. coli": {"tested_on": "E. coli", "assay": "Growth curves and morphology of E. coli at 35° C. or 43° C.", "format": "cell-based", "method": "FIG. 3. PES and E. coli. (A) Identification of DnaK as Biotin-PES (B-PES) interacting protein in bacteria by liquid chromatography-tandem mass spectrometry, as described herein below. (B) The amino acid sequence of DnaK (SEQ ID NO: 7); the residues detected by mass spectrometry are shown in bold and underlined. (C) Growth curves of E. coli treated with different concentrations of PES either at 35° C. or 43° C. […] (D) Bacterial morphology (phase contrast microscopy) following treatment of the cells with PES at the indicated temperatures. Note evidence of filamentation and aggregation at higher concentrations of PES, especially at 43° C."}, "cathepsin L": {"tested_on": "cathepsin L", "assay": "Western blot of cathepsin L processing", "format": "cell-based, human", "details": "20 μM, 24 h"}, "FaDu tumor xenografts": {"tested_on": "FaDu tumor xenografts", "assay": "FaDu xenograft, western blot of tumor lysates for p62/SQSTM1 and LC3", "format": "in vivo, nude mice", "details": "40 mg/kg intratumoral"}, "U2OS cells": {"tested_on": "U2OS cells", "assay": "Long-lived protein degradation assay", "format": "cell-based, human", "details": "20 μM", "method": "The long-lived protein degradation assays were performed as described (Humbey et al., 2008; Pimkina et al., 2008), but with the following modifications. The cells were seeded at 30% confluency. The cells were then labeled at 37° C. for 14 h in L-valine-free medium supplemented with dialyzed FBS medium containing 0.2 mCi/ml of L-[^14C]valine (Amersham Pharmacia). After the radiolabeling period, unincorporated radioisotope was removed by three rinses with PBS (pH 7.4). Cells were then incubated at 37° C. in fresh complete media [Dulbecco's modified Eagle's medium (DMEM), 10% fetal bovine serum (FBS), 1% penicillin-streptomycin (PS)] containing 2 mM unlabeled valine for 10 h to allow the degradation of labeled short-lived proteins. Cells were then rinsed 3 times with PBS (pH 7.4), and grown in fresh complete media [DMEM, 10% FBS, 1% PS] containing either DMSO or 20 μM PES. Aliquots of the media (0.2 ml in duplicate) were taken at 0 h, 4 h, 8 h, 24 h, and 48 h and mixed with 0.2 ml of 1% bovine serum albumin and 0.4 ml of 40% trichloroacetic acid (v/v). […] Radioactivity in the aliquots was measured on a Beckman liquid scintillation system. The percentage of long-lived protein degraded was obtained by the formula % degradation=(^14C counts at timepoint/sum of ^14C counts at each time point+total cell-associated radioactivity)×100."}, "HSP70": {"tested_on": "HSP70", "assay": "Capture of HA-tagged HSP70 constructs from transfected H1299 cells with biotinylated compound", "format": "binding, human", "details": "biotinylated PES", "method": "FIG. 1. PES Binds to HSP70. (A) Whole cell extracts (WCE) prepared from A875 and BCL-xL over-expressing U2OS human osteosarcoma cells (BX-U2OS) cells, treated with Biotin or Biotin-PES (B-PES), were captured using NeutrAvidin agarose resins. HSP70-family proteins were identified as the major product in the excised band of ˜70 kDa shown in both Coomassie gels. (B and C) WCE were prepared from the cell lines indicated following 24 h treatment with 20 μM Biotin or B-PES and examined for the expression of proteins indicated (left panel of B and C) by western blot analysis; note that different exposure times were used to visualize these proteins. […] (D) In vitro evidence for an interaction between B-PES and HSP70. Full-length human HSP70 and human HSP90 proteins were in vitro translated in the presence of ^35S-methionine, mixed with B-PES coupled to NeutrAvidin resins, and eluted using 100 mM DTT. […] (F) Non-transformed human IMR90 fibroblasts or H1299 lung carcinoma cells were treated with the indicated concentrations of PES for 24 h and cell viability was determined by MTT assays. […]\nThe free amide group of PES-Cl was biotinylated and added to HA-tagged HSP70-transfected H1299 cells. […] The complexes were pulled down with NeutrAvidin beads, eluted with 100 mM DTT treatments, separated with SDS-PAGE and detected with anti-HA antibody (Millipore) by Western blot. […]"}, "[1]": {"tested_on": "H1299 human lung carcinoma cells", "assay": "MTT cell viability assay", "format": "cell-based", "method": "(§1) Cell viability assays were performed using an MTT (methyl thiazolyl tetrazolium) colorimetric assay (Roche Applied Science, Cat. No. 11 465 007 001), with the following modifications. Briefly, cells (1×10^4) were plated into 24 well-assay plates in 0.5 ml media and allowed to attach overnight. […] After the incubation period, 50 μl of the water-soluble MTT labeling reagent [3-[4,5-dimethylthiazol-2-yl]-2,5-diphenyl tetrazolium bromid] were added to the cells, and the cells were incubated for 4 h in a humidified chamber at 37° C. with 5% CO2. The metabolized insoluble formazan crystals were then solubilized using 0.5 ml of the Solubilization solution (10% SDS in 0.01M HCl) per well, and the resulting colored solutions were spectrophotometrically quantified at an absorbance of 570 nm."}, "[2]": {"tested_on": "WI38 human fetal lung fibroblasts", "assay": "MTT cell viability assay", "format": "cell-based", "details": "except at the highest concentration tested (20 μM)", "method": "as §1"}, "[3]": {"tested_on": "normal human lung fibroblasts (IMR90)", "assay": "MTT cell viability assay", "format": "cell-based", "details": "24 h, except at the highest concentrations used", "method": "as §1"}},
  "note": "Entries after “also recorded” stand apart in the source; their conditions may differ.",
  "data": [
    {"compound": "NS(=O)(=O)C#Cc1ccccc1", "note": "[PES, 2-Phenylethynesulfonamide]", "values": [
      {"measurement": "response of the bacteria to elevated temperatures", "setting": "E. coli", "value": "slow growth, filamentation, and reduced viability"},
      {"measurement": "cell proliferation of E. coli", "setting": "E. coli; increasing concentrations, 35° C. or 43° C.", "value": "inhibited in a dose-dependent fashion"},
      {"measurement": "processing of cathepsin L", "setting": "cathepsin L", "value": "accumulation of the precursor pro-cathepsin L and a markedly reduced abundance of the smaller, mature form of the enzyme"},
      {"measurement": "LC3 in detergent-insoluble tumor fractions", "setting": "FaDu tumor xenografts", "value": "accumulated LC3 in the detergent-insoluble fractions"},
      {"measurement": "p62/SQSTM1 abundance and oligomerization in tumor", "setting": "FaDu tumor xenografts; 24 and 48 hr", "value": "increased p62/SQSMT1 abundance and oligomerization"},
      {"measurement": "basal degradation of long-lived proteins", "setting": "U2OS cells", "value": "significantly reduced"},
      {"measurement": "binding to HSP70 mutants L558R and Y611S", "setting": "HSP70", "value": "failed to bind PES"},
      {"measurement": "cell viability", "setting": "[1]", "value": "effective at killing HI299 lung carcinoma cells; also recorded: dose-dependent loss of viability"},
      {"measurement": "PES-induced cell death after silencing of HSP70", "setting": "[1]; HSP70 shRNA, 20 μM PES 24 h", "value": "rescued PES-induced cell death"},
      {"measurement": "cell viability", "setting": "[2]", "value": "no decrease in cell viability"},
      {"measurement": "cell viability", "setting": "[3]", "value": "minimal effect"}
    ]}
  ]
}
